Laboratory results: patent US8383582B2, “Inhibitor against forming biofilm comprising κ-casein macropeptide” (Industry Foundation of Chonnam National University, priority 2010, dated 2013)

Tests used:
Format in all cases: cell-based, Listeria monocytogenes
L. monocytogenes = experiment: Biofilm formation on PVC microplates under static condition (crystal violet, A595); details: for inhibitory rate of biofilm formation (group): 24 h incubation
From the text: (§1) The quantification of biofilm production on plastic microtiter plates and glass tubes was based on a previously described method (Djordjevic et al., 2002). As abiotic surfaces for biofilm formation, 96-well polyvinyl chloride (PVC) microplates (BD Biosciences, San Jose, Calif., USA) and Pyrex glass tube (10 mm by 20 mm) were used. Overnight cultures of 12 strains of L. monocytogenes were twice washed with PBS and inoculated at 10^6 CFU/ml in modified Welshimer's broth (MWB) supplemented different concentrations of CMP (Davisco Foods International, Inc., MN, USA; 0.1, 0.2, and 0.4 mg/ml or 1.0, 2.0, and 4.0 mg/ml). After incubation at 30° C. without agitation for 24 and 48 h, the microplates were twice rinsed thoroughly with double-distilled water, and a 0.1% (w/v) solution of crystal violet (CV) was added to stain the attached cells. Following staining at room temperature for 30 min, CV was removed and the wells were rinsed with double-distilled water thrice. After the microplates were air dried, the dye was solubilized with 95% ethanol solution. The absorbance at 595 nm of the solubilized dye was subsequently determined by using an enzyme-linked immunosorbent assay (ELISA) plate reader (Molecular Devices, Sunnyvale, Calif., USA). An equal volume of 95% ethanol was added in the control wells.
All experiments were conducted at least in triplicate. The effects of each treatment were analyzed by analysis of variance (ANOVA) followed by Duncan's test with the SAS software package (version 9.1; SAS, Inc., Cary, N.C., USA). The level of significance was defined at p<0.05.

L. monocytogenes Scott A = experiment: Light microscopy of biofilm on PVC microtiter plates and glass tube; details: MWB 24 h, CMP 0.4 mg/ml
From the text: as §1, with “Following staining at room temperature for 30 min, CV was removed and the wells were rinsed with double-distilled water thrice. After the microplates were air dried, the dye was solubilized with 95% ethanol solution.” left out, “An equal volume of 95% ethanol was added in the control wells.” left out
In addition, biofilm formations on PVC microtiter plates and glass tube by L. monocytogenes incubated in MWB for 24 h in the presence or absence of CMP (0.4 mg/ml) were analyzed using light microscopy and microscopic analyses were illustrated in FIGS. 3 and 4, respectively.

[1] = test system: L. monocytogenes Scott A biofilm cells; experiment: Two-dimensional gel electrophoresis / LC-MS/MS of biofilm cell protein extracts
Protocol: This biofilm formation protocol was adapted from that used for the microtiter plate assay in this invention, to obtain a sufficient quantity of biofilm cells for two-dimensional gel electrophoresis (2-DE). Biofilms were prepared by using a slight modification of a previously described method (Ren et al., 2004). L. monocytogenes was grown in TSBYE overnight, and a 2.5 ml overnight culture was washed twice with PBS. Then, the cells were inoculated into a 250-ml shake flask containing 100 ml fresh MWB with or without the effective concentration of CMP on 10 g sterilized glass wool (Pyrex fiber glass; Corning, N.Y., USA). The cells were incubated with shaking (250 rpm in a shaking incubator; Vision Scientific Co., Ltd., Korea) at 30° C. to form a biofilm on the glass wool. After 24 h inoculation, the glass wool was retrieved from the culture, and quickly and gently washed twice in 100 ml of 0.85% sodium chloride buffer (within 30 s) at 4° C. The biofilm cells were removed from the glass wool by sonication in 200 ml of 0.85% sodium chloride buffer at 4° C. for 2 min. The buffer was then centrifuged (8,000×g in a VS-21S MT centrifuge; Vision Scientific Co., Ltd.) for 10 min at 4° C. to precipitate the biofilm cells. These cells were washed twice by centrifugation (8,000×g, 10 min, 4° C.) with 0.85% sodium chloride buffer; the cell pellets were flash-frozen in liquid nitrogen. While sonicating, suspended biofilm cells with an optical density at 600 nm of 2 were harvested by centrifugation (8,000×g) at room temperature for 10 min in an Eppendorf tube. The cell pellets were then flash-frozen in liquid nitrogen and kept at −80° C. until protein extraction.
The biofilm cells harvested from the glass wool were suspended in the same lysis buffer (TE buffer; 40 mM Tris, 1 mM EDTA, pH 8.0) and lysed by using Ultraschallprozessor UP200S (amplification 70, 0.5 cycle; Dr. Hielscher GmbH) 20 times for 30 s on ice. Following sonication, the unlysed cells, cell debris, and glass fibers were removed by centrifugation (8,000×g, 4° C.), and the supernatant fluids were recovered.
Protein samples were precipitated by using the phenol protocol of Hanna et al. (2000). The protein concentration was determined by using the modified Bradford assay method (Ramagli, 1999). The protein samples were stored at −80° C. until proteomic analysis.
The method described by Kim et al. (2006) with slight modifications was used for 2-DE. In the first dimension of isoelectric focusing (IEF), precast immobilized pH gradient (IPG) strips, with a nonlinear gradient from pH 3 to 10 (Bio-Rad Laboratories, Richmond, Calif., USA), were rehydrated for 12-18 h with 500 μg of protein in 300 μl of rehydration buffer (8 M urea, 2% CHAPS, 50 mM DTT, 10% isopropanol, 5% glycerol, 0.002% bromophenol blue, 0.2% ampholytes, water). In accordance with the manufacturer's instructions, focusing was performed by using a Protean IEF cell system (Bio-Rad Laboratories) at 20° C. under 60,000 Vh. After IEF, the strips were incubated for 10 min in equilibration buffer I (6 M urea, 2% SDS, 20% glycerol, 130 mM DTT, 0.375 M Tris-HCl [pH 8.8]), followed by another 10 min in equilibration buffer II (6 M urea, 2% SDS, 20% glycerol, 135 mM iodoacetamide, 0.375 M Tris-HCl [pH 8.8]). After equilibration, the strips were transferred to 12.5% sodium dodecyl sulfate (SDS)-polyacrylamide gels (20×22 cm) for running in the second dimension.
The proteins were separated by using a Protean II xi system (Bio-Rad Laboratories) with 20 mA per gel at 4° C. The protein spots were visualized by blue-silver staining (Candiano et al., 2004). The stained gels were then scanned with a densitometric scanner (UTA 2100XL; UMAX, Dallas, Tex., USA), and the spots were analyzed by using the PDQuest software (Bio-Rad Laboratories) in accordance with the manufacturer's instructions. Four gels resulting from two independent experiments were obtained, and two gels of good quality were used for analysis. […]

[2] = presence of 0.4 mg/ml CMP vs absence

## κ-casein macropeptide [CMP]
L. monocytogenes; 0.1, 0.2, or 0.4 mg/ml tested, effect at 0.4 mg/ml
  inhibitory effects on biofilm formation at low concentrations: profound inhibitory effects
L. monocytogenes; 1, 2, or 4 mg/ml of CMP
  differences in biofilm inhibition among the tested concentrations: no significant differences
L. monocytogenes; PVC microplates, 1, 2, or 4 mg/ml of CMP
  decrease of L. monocytogenes biofilms compared to the control: < 90%
L. monocytogenes; strain 17, PVC microplates
  inhibitory rate of biofilm formation (group): high inhibition (90%≦inhibition rate represent high inhibition)
L. monocytogenes; strain 18, PVC microplates
  inhibitory rate of biofilm formation (group): high inhibition (90%≦inhibition rate represent high inhibition)
L. monocytogenes; strain 70, PVC microplates
  inhibitory rate of biofilm formation (group): low inhibition (inhibition rate<87% represent low inhibition)
L. monocytogenes; strain 106, PVC microplates
  inhibitory rate of biofilm formation (group): medium inhibition (87%≦inhibition rate<90% represent medium inhibition)
L. monocytogenes; strain 303, PVC microplates
  inhibitory rate of biofilm formation (group): low inhibition (inhibition rate<87% represent low inhibition)
L. monocytogenes; strain 3982, PVC microplates
  inhibitory rate of biofilm formation (group): high inhibition (90%≦inhibition rate represent high inhibition)
L. monocytogenes; strain 3990, PVC microplates
  inhibitory rate of biofilm formation (group): high inhibition (90%≦inhibition rate represent high inhibition)
L. monocytogenes; strain Brie-1, PVC microplates
  inhibitory rate of biofilm formation (group): high inhibition (90%≦inhibition rate represent high inhibition)
L. monocytogenes; strain LCDC, PVC microplates
  inhibitory rate of biofilm formation (group): low inhibition (inhibition rate<87% represent low inhibition)
L. monocytogenes; strain Scott A, PVC microplates
  inhibitory rate of biofilm formation (group): low inhibition (inhibition rate<87% represent low inhibition)
L. monocytogenes; strain V7, PVC microplates
  inhibitory rate of biofilm formation (group): medium inhibition (87%≦inhibition rate<90% represent medium inhibition)
L. monocytogenes; strain V37, PVC microplates
  inhibitory rate of biofilm formation (group): medium inhibition (87%≦inhibition rate<90% represent medium inhibition)
L. monocytogenes Scott A
  attached cells (light microscopy): only a small number of L. monocytogenes Scott A cells had attached
[1]; 0.4 mg/ml CMP, about 320 spots visualized
  protein spots with increase or decrease in amounts compared to the control: two and seven spots were up- and down-regulated
[1]; [2]
  FC, Fold difference in biofilm: spot 0302 enolase: −3.8 Fold
  FC, Fold difference in biofilm: spot 2004 glutamine synthetase: +2.4 Fold
  FC, Fold difference in biofilm: spot 4405 6-phosphofructokinase: −2.8 Fold
  FC, Fold difference in biofilm: spot 5104 hypothetical protein Smal_0271: ∇
  FC, Fold difference in biofilm: spot 5105 conserved hypothetical protein: −2.0 Fold
  FC, Fold difference in biofilm: spot 5206 Gap: +2.9 Fold
  FC, Fold difference in biofilm: spot 5207 hypothetical protein Smal_0271: −2.4 Fold
  FC, Fold difference in biofilm: spot 6103 glutamine synthetase: −2.0 Fold
  FC, Fold difference in biofilm: spot 7202 phosphoglycerate mutase 1 family: −3.2 Fold
